The target in assay [1] is T1, human B2 receptor (Homo sapiens, UniProt P30411).
T1 construct: expressed in transfected cells; host or cells: CHO cells (membranes)
T1 sequence (P30411 1-391): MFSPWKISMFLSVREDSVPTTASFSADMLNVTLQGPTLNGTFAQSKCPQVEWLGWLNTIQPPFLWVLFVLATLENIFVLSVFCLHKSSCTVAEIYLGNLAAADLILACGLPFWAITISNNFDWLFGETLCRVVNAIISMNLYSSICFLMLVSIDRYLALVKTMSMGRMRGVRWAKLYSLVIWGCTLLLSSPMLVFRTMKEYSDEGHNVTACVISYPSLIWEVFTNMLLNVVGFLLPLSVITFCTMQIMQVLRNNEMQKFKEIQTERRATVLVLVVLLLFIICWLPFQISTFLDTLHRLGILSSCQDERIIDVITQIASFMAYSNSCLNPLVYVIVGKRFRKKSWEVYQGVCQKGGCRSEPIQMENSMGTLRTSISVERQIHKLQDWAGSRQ
Kind of assay: competitive binding test on CHO cell membranes expressing the human B2 receptor using [3H]-bradykinin as ligand. Here is the method:
The activity of the products according to the invention was evaluated, according to a first aspect, as a function of their aptitude to bind to the bradykinin B2 receptors. […] It is likewise known that bradykinin is amongst one of the most powerful algesic agents known. The mode of action of kinins and more particularly of bradykinin makes a coupling of the peptides to the two types of receptors called B1 and B2 respectively take place. The B2 receptor belongs to the large family of receptors with seven transmembrane domains coupled to the G proteins and seems to be more particularly involved in the field of the pathologies mentioned above. This is the reason why the products of the invention, which have the property of being able to bind to the B2 receptor, inhibit the binding of bradykinin and, consequently, suppress its harmful activity. The test employed in order to measure this property is a competitive binding test on CHO cell membranes expressing the human B2 receptor using bradykinin labelled with tritium ([^3H]-bradykinin) as ligand.
The results are expressed by the Ki value, as calculated according to the recommended method with the description of the test employed and described according to D. Pruneau et al., in Br. J. Pharmacol. 1998, 125 p 365-372.

Assay [2] addresses T2, bradykinin B2 receptor (Homo sapiens, UniProt P30411).
T2 construct: from tissue; host or cells: isolated human umbilical vein
T2 sequence (P30411 1-391): T1 sequence (P30411 1-391)
Nature of the assay: inhibition of the contraction of the isolated human umbilical vein in the presence of bradykinin. The class given is cell-based. The text has this: This antagonist character is expressed by the value pA2, calculated according to a biological test employed in order to measure the inhibition of the contraction of the isolated human umbilical vein by the compounds according to the invention in the presence of bradykinin. The test procedure and the method of calculation of pA2 are described in the articles of D. Pruneau et al. published in Br. J. Pharmacol. 1998, 125, p 365-372 and J L. Paquet et al. Br. J. Pharmacol. 1999, 126 (in print).

The mark [3] stands for this setting: isolated human umbilical vein, contraction in the presence of bradykinin, read-out: pA2 (converted).

Counter-ions that a name gives are not always drawn. Like-named read-outs stand apart in the source and are kept apart here.

Take `Cc1cc(-n2cncn2)c2cccc(OCc3c(Cl)ccc(S(=O)(=O)N4CCC[C@H]4C(=O)NCC4CCN(CCO)CC4)c3Cl)c2n1` [Example 166, 1-[[2,4-Dichloro-3-[[[2-methyl-4-(1H-1,2,4-triazol-1-yl)-2-methyl-8-quinolinyl]oxy]methyl]phenyl]sulphonyl]-N-[[1-(2-(hydroxyethyl)-4-piperidinyl]methyl]-2(S)-pyrrolidinecarboxamide, methanesulphonate]: the inhibition constant Ki (as a rule, a measure of affinity in units of concentration, obtained from inhibition or displacement) in assay [1] was 5.8 nM. Besides, the Kb in assay [2] (setting [3]) was 6.31 nM.

Turning to `Cc1cc(-n2ccnc2)c2cccc(OCc3c(Cl)ccc(S(=O)(=O)N4CCC[C@H]4C(=O)NCCCN4CCCC4)c3Cl)c2n1` [Example 77, 1-[[2,4-Dichloro-3-[[[4-(1H-imidazol-1-yl)-2-methyl-8-quinolinyl]oxy]methyl]-phenyl]sulphonyl]-N-[3-(1-pyrrolidinyl)propyl]-2(S)-pyrrolidinecarboxamide, tartrate], the inhibitory constant (Ki) in assay [1] came to 6.1 nM. In addition, the Kb in assay [2] is 2.51 nM.

“1-[[2,4-Dichloro-3-[[[4-(1H-imidazol-1-yl)-2-methyl-8-quinolinyl]oxy]methyl]-phenyl]sulphonyl]-N-[3-(4-morpholinyl)propyl]-2(S)-pyrrolidinecarboxamide, hemisulphate [Example 50]”: affinity in assay [1] was put at a Ki of 30 nM. The pA2 (usually a measure of antagonist potency on a negative log scale) in assay [2] (isolated human umbilical vein, contraction in the presence of bradykinin) is reported as 8.3.

For the compound `Cc1cc(-n2ccnc2)c2cccc(OCc3c(Cl)ccc(S(=O)(=O)N4CCC[C@H]4C(=O)NCC4CCN(CCCO)CC4)c3Cl)c2n1` [Example 23, 1-[[2,4-Dichloro-3-[[[4-(1H-imidazol-1-yl)-2-methyl-8-quinolinyl]oxy]methyl]-phenyl]sulphonyl]-N-[[1-(3-hydroxypropyl)-4-piperidinyl]methyl]-2(S)-pyrrolidinecarboxamide, tartrate], the Ki in assay [1] was 0.45 nM. In addition, in assay [2], the Kb was 0.794 nM.

For `Cc1cc(-n2ccnc2)c2cccc(OCc3c(Cl)ccc(S(=O)(=O)N4CCC[C@H]4C(=O)NCC4CCN(Cc5ccccn5)CC4)c3Cl)c2n1` [Example 109, 1-[[2,4-Dichloro-3-[[[4-(1H-imidazol-1-yl)-2-methyl-8-quinolinyl]oxy]methyl]-phenyl]sulphonyl]-N-[[1-(2-pyridinylmethyl)-4-piperidinyl]methyl]-2(S)-pyrrolidinecarboxamide, methanesulphonate], the Ki in assay [1] worked out at 15 nM. Further, the Kb in assay [2] (setting [3]) is 5.01 nM.

Compound `CC(=O)N[C@H]1CCN(S(=O)(=O)c2ccc(Cl)c(COc3cccc4c(-n5ccnc5)cc(C)nc34)c2Cl)C1` [Example 174, N-[1-[[2,4-Dichloro-3-[[[4-(1H-imidazol-1-yl)-2-methyl-8-quinolinyl]oxy]-methyl]phenyl]sulphonyl]-3(S)-pyrrolidinyl]acetamide] had a Ki in assay [1] of 8.8 nM. In addition, in assay [2] (setting [3]), the Kb was 7.94 nM.

`CNCCCNC(=O)[C@@H]1CCCN1S(=O)(=O)c1ccc(Cl)c(COc2cccc3c(-n4ccnc4)cc(C)nc23)c1Cl` [Example 123, 1-[[2,4-Dichloro-3-[[[4-(1H-imidazol-1-yl)-2-methyl-8-quinolinyl]oxy]methyl]-phenyl]sulphonyl]-N-[3-(methylamino)propyl]-2(S)-pyrrolidinecarboxamide, trifluoroacetate]: the affinity in assay [1] corresponds to a Ki of 8.1 nM. Further, the Kb in assay [2] was 3.98 nM.

On to `Cc1cc(-n2ccnc2)c2cccc(OCc3c(Cl)ccc(S(=O)(=O)N4CCC[C@H]4C(=O)NCC4CCN(CCC(=O)O)CC4)c3Cl)c2n1` [Example 115, 4-[[[[1-[[2,4-Dichloro-3-[[[4-(1H-imidazol-1-yl)-2-methyl-8-quinolinyl]oxy]-methyl]phenyl]sulphonyl]-2(S)-pyrrolidinyl]carbonyl]amino]methyl]-1-piperidinepropanoic acid, tartrate], for which the Ki in assay [1] turned out to be 35 nM. Further, in assay [2], the Kb is 3.16 nM.

Consider `Cc1cc(-n2ccnc2)c2cccc(OCc3c(Cl)ccc(S(=O)(=O)N4CCC[C@H]4C(=O)NCCN4CCCC4)c3Cl)c2n1` [Example 75, 1-[[2,4-Dichloro-3-[[[4-(1H-imidazol-1-yl)-2-methyl-8-quinolinyl]oxy]methyl]-phenyl]sulphonyl]-N-[2-(1-pyrrolidinyl)ethyl]-2(S)-pyrrolidinecarboxamide, tartrate], for which the Ki in assay [1] was found to be 2.8 nM. The Kb in assay [2] is 5.01 nM.

The compound `Cc1cc(-n2ccnc2)c2cccc(OCc3c(Cl)ccc(S(=O)(=O)N4CCC[C@H]4C(=O)N(C)CCN(C)CCCO)c3Cl)c2n1` [Example 101, 1-[[2,4-Dichloro-3-[[[4-(1H-imidazol-1-yl)-2-methyl-8-quinolinyl]oxy]methyl]-phenyl]sulphonyl]-N-methyl-N-[2-[[3-(hydroxy)propyl](methyl)amino]ethyl]-2(S)-pyrrolidinecarboxamide, methanesulphonate] returned a Ki in assay [1] of 50 nM. The Kb in assay [2] (setting [3]) was 3.98 nM.

In assay [1], `Cc1cc(-n2ccnc2)c2cccc(OCc3c(Cl)ccc(S(=O)(=O)N4CCC[C@H]4C(=O)NCC4CCN(CCO)CC4)c3Cl)c2n1` [64 A] came in with an inhibitory constant (Ki) of 0.034 nM. Also, the Kb in assay [2] (setting [3]) was 0.501 nM.

`Cc1cc(-n2ccnc2)c2cccc(OCc3c(Cl)ccc(S(=O)(=O)N4CCC[C@H]4C(=O)N(C)CCN(C)CCCCO)c3Cl)c2n1` [Example 103, 1-[[2,4-Dichloro-3-[[[4-(1H-imidazol-1-yl)-2-methyl-8-quinolinyl]oxy]methyl]-phenyl]sulphonyl]-N-methyl-N-[2-[[4-(hydroxy)butyl](methyl)amino]ethyl]-2(S)-pyrrolidinecarboxamide, methanesulphonate] came in with an inhibitory constant (Ki) in assay [1] of 21 nM. Besides, the Kb in assay [2] (setting [3]) is 12.6 nM.

`Cc1cc(-n2ccnc2)c2cccc(OCc3c(Cl)ccc(S(=O)(=O)N4CCC[C@H]4C(=O)NCCCNC(=O)c4ccc(C(=N)N)cc4)c3Cl)c2n1` [Example 4, N-[3-[[4-(Aminoiminomethyl)benzoyl]amino]propyl]-1-[[2,4-dichloro-3-[[[4-(1H-imidazol-1-yl)-2-methyl-8-quinolinyl]oxy]methyl]phenyl]sulphonyl]-2(S)-pyrrolidinecarboxamide, bis methanesulphonate]: in assay [1], the Ki turned out to be 0.24 nM. In addition, in assay [2] (setting [3]), the Kb was 0.1 nM.

`Cc1cc(-n2ccnc2)c2cccc(OCc3c(Cl)ccc(S(=O)(=O)N4CCC[C@H]4C(=O)NCc4ccccn4)c3Cl)c2n1` [Example 89, 1-[[2,4-Dichloro-3-[[[4-(1H-imidazol-1-yl)-2-methyl-8-quinolinyl]oxy]methyl]-phenyl]sulphonyl]-N-[(2-pyridinyl)methyl]-2(S)-pyrrolidinecarboxamide, methanesulphonate] had a Ki in assay [1] of 55 nM. In addition, the Kb in assay [2] (setting [3]) is 10 nM.

`Cc1cc(-n2ccnc2)c2cccc(OCc3c(Cl)ccc(S(=O)(=O)N4CCC[C@H]4C(=O)NCC4CCN(CCCCO)CC4)c3Cl)c2n1` [Example 32, 1-[[2,4-Dichloro-3-[[[4-(1H-imidazol-1-yl)-2-methyl-8-quinolinyl]oxy]methyl]-phenyl]sulphonyl]-N-[[1-(4-hydroxybutyl)-4-piperidinyl]methyl]-2(S)-pyrrolidinecarboxamide, tartrate] gave a Ki in assay [1] of 1.4 nM. The Kb in assay [2] was 0.794 nM.

In turn, `Cc1cc(-n2ccnc2)c2cccc(OCc3c(Cl)ccc(S(=O)(=O)N4CC[C@@H](O)C4)c3Cl)c2n1` [Example 170, 1-[[2,4-Dichloro-3-[[[4-(1H-imidazol-1-yl)-2-methyl-8-quinolinyl]oxy]methyl]-phenyl]sulphonyl]-3(R)-pyrrolidinol, tartrate] gave an inhibition constant (Ki) in assay [1] of 7.8 nM. Besides, the Kb in assay [2] was 10 nM.

In assay [1], `Cc1cc(-n2ccnc2)c2cccc(OCc3c(Cl)ccc(S(=O)(=O)N4CCC[C@H]4C(=O)N(C)CCN(C)C)c3Cl)c2n1` [Example 73, 1-[[2,4-Dichloro-3-[[[4-(1H-imidazol-1-yl)-2-methyl-8-quinolinyl]oxy]methyl]-phenyl]sulphonyl]-N-[2-(dimethylamino)ethyl]-N-methyl-2(S)-pyrrolidine-carboxamide, tartrate] had an inhibition constant Ki of 10 nM. Further, the Kb in assay [2] was 3.98 nM.

In the case of `Cc1cc(-n2cncn2)c2cccc(OCc3c(Cl)ccc(S(=O)(=O)N4CCC[C@H]4C(=O)NCC4CCN(CCCO)CC4)c3Cl)c2n1` [Example 30, 1-[[2,4-Dichloro-3-[[[2-methyl-4-(1H-1,2,4-triazol-1-yl)-8-quinolinyl]oxy]-methyl]phenyl]sulphonyl]-N-[[1-(3-hydroxypropyl)-4-piperidinyl]methyl]-2(S)-pyrrolidinecarboxamide, tartrate], the inhibition constant (Ki) in assay [1] came out at 0.73 nM. Besides, the Kb in assay [2] was 2 nM.
